For data set [1] the following is noted: room temperature.
In data set [2] the test system is and malignant tumors of the uterus. The conditions noted are these: six patients, 100 mg orally twice daily; cited from earlier work.
For data set [3], the system named is oval cancer and malignant tumors of the uterus. The conditions noted are these: cited from earlier work.

Structures are written as SMILES.

Results on two compounds are retold here after patent US9546188B2, “Complexes of germanium with amino acids and carboxylic acids and method for preparing same” (OBSCHESTVO S OGRANICHENNOI OTVETSTVENNOSTYU “WDS FARMA”, priority 2012, dated 2017).

In the case of `O=C(O)CCCCCCCC(=O)O` [azelaic acid], the water solubility in data set [1] came to 0.2%.

As to `N[C@@H](CC(=O)O)C(=O)O.[Ge]` [germanium compound with aspartic acid], the “exudate in the abdominal cavity or internal pelvic cavity” value in data set [2] is listed as “five patients did not show exudate”. Further, in data set [3] (examination one month later), the “infiltration in post-operational examination” value is “None patients showed infiltration”. In addition, the health of patients entry in data set [3] (six patients, 100 mg orally as 10% solution twice daily, tumors removed surgically) was “noticeable improvement in health”. Also, the toxic side effects result in data set [3] (six patients, 100 mg orally twice daily) is reported as “no toxic side effects”.
